{
  "source": "patent US6355799B1",
  "about": "“Substituted benzene compounds, process for their preparation, and herbicidal and defoliant compositions containing them” (ISK Americas Incorporated, priority 1997, dated 2002)",
  "type_in_all_cases": "in vivo",
  "key": {"[1]": {"system": "redroot pigweed (Amaranthus retroflexus, AMARE)", "experiment": "Pre-emerge test, greenhouse herbicide activity screening", "details": "pre-emerge, 14 days after application, rating scale 0-100", "method_in_brief": "(§1)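 Herbicidal damage is scored 0 (none) to 100 (complete plant death) two weeks after a simulated field spray. Rates span 15–1000 g ai/ha, delivered in acetone at 187 l/ha. For post-emergence treatments, plants have 2–3 leaves and the spray carries 0.25% v/v non-ionic surfactant.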"}, "[2]": {"system": "upland rice (Oryza sp., var. Tebonnet, RICE)", "experiment": "Pre-emerge test, crop safety", "details": "pre-emerge, 14 days after application, rating scale 0-100", "method_in_brief": "(§2)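 Visual ratings on a 0-100 scale (0 no damage, 100 all plants dead) were taken at 14 days after treatment. Rates of 15-1000 g ai/ha in acetone, 187 l/ha, were sprayed onto soil one day after planting (pre-emerge) or onto 2-3 leaf plants with 0.25% v/v surfactant (post-emerge).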"}, "[3]": {"system": "field corn (Zea mays L., var. Dekalb 535, CORN)", "experiment": "Pre-emerge test, crop safety", "details": "pre-emerge, 14 days after application, rating scale 0-100", "method_in_brief": "as §2"}, "[4]": {"system": "large crabgrass (Digitaria sanguinalis, DIGSA)", "experiment": "Pre-emerge test, greenhouse herbicide activity screening", "details": "pre-emerge, 14 days after application, rating scale 0-100", "method_in_brief": "as §1"}, "[5]": {"system": "johnsongrass (Sorghum halepense, SORHA)", "experiment": "Pre-emerge test, greenhouse herbicide activity screening", "details": "pre-emerge, 14 days after application, rating scale 0-100", "method_in_brief": "as §1"}, "[6]": {"system": "ivyleaf morningglory (Ipomoea hederacea, IPOHE)", "experiment": "Pre-emerge test, greenhouse herbicide activity screening", "details": "pre-emerge, 14 days after application, rating scale 0-100", "method_in_brief": "as §1"}, "[7]": {"system": "green foxtail (Setaria viridis, SETVI)", "experiment": "Pre-emerge test, greenhouse herbicide activity screening", "details": "pre-emerge, 14 days after application, rating scale 0-100", "method_in_brief": "as §1"}, "[8]": {"system": "cocklebur (Xanthium strumarium, XANST)", "experiment": "Pre-emerge test, greenhouse herbicide activity screening", "details": "14 days after application, rating scale 0-100"}, "[9]": {"system": "sicklepod (Cassia obtusifolia, CASOB)", "experiment": "Pre-emerge test, greenhouse herbicide activity screening", "details": "pre-emerge, 14 days after application, rating scale 0-100", "method_in_brief": "as §1"}, "[10]": {"system": "velvetleaf (Abutilon theophrasti, ABUTH)", "experiment": "Pre-emerge test, greenhouse herbicide activity screening", "details": "pre-emerge, 14 days after application, rating scale 0-100", "method_in_brief": "as §1"}, "[11]": {"system": "lambsquarters (Chenopodium album, CHEAL)", "experiment": "Pre-emerge test, greenhouse herbicide activity screening", "details": "pre-emerge, 14 days after application, rating scale 0-100", "method_in_brief": "as §1"}, "[12]": {"system": "barnyardgrass (Echinochloa crus-galli, ECHCG)", "experiment": "Pre-emerge test, greenhouse herbicide activity screening", "details": "pre-emerge, 14 days after application, rating scale 0-100", "method_in_brief": "as §1"}},
  "data": [
    {"smiles": "O=c1cc(C(F)(F)F)[nH]c(=O)n1-c1c(Cl)cc(C(F)(F)F)cc1Cl", "note": "[compound 2, reference compound]", "values": [
      {"measurement": "phytotoxicity rating AMARE", "setting": "[1]; 3.9 g ai/ha", "result": 0},
      {"measurement": "phytotoxicity rating AMARE", "setting": "[1]; 7.8 g ai/ha", "result": 0},
      {"measurement": "phytotoxicity rating AMARE", "setting": "[1]; 15.6 g ai/ha", "result": 0},
      {"measurement": "phytotoxicity rating AMARE", "setting": "[1]; 31.3 g ai/ha", "result": 0},
      {"measurement": "phytotoxicity rating AMARE", "setting": "[1]; 62.5 g ai/ha", "result": 0},
      {"measurement": "phytotoxicity rating AMARE", "setting": "[1]; 125 g ai/ha", "result": 0},
      {"measurement": "phytotoxicity rating AMARE", "setting": "[1]; 250 g ai/ha", "result": 0},
      {"measurement": "phytotoxicity rating RICE", "setting": "[2]; 3.9 g ai/ha", "result": 0},
      {"measurement": "phytotoxicity rating RICE", "setting": "[2]; 7.8 g ai/ha", "result": 0},
      {"measurement": "phytotoxicity rating RICE", "setting": "[2]; 15.6 g ai/ha", "result": 0},
      {"measurement": "phytotoxicity rating RICE", "setting": "[2]; 31.3 g ai/ha", "result": 0},
      {"measurement": "phytotoxicity rating RICE", "setting": "[2]; 62.5 g ai/ha", "result": 0},
      {"measurement": "phytotoxicity rating RICE", "setting": "[2]; 125 g ai/ha", "result": 0},
      {"measurement": "phytotoxicity rating RICE", "setting": "[2]; 250 g ai/ha", "result": 15},
      {"measurement": "phytotoxicity rating MAIZE", "setting": "[3]; 3.9 g ai/ha", "result": 0},
      {"measurement": "phytotoxicity rating MAIZE", "setting": "[3]; 7.8 g ai/ha", "result": 0},
      {"measurement": "phytotoxicity rating MAIZE", "setting": "[3]; 15.6 g ai/ha", "result": 0},
      {"measurement": "phytotoxicity rating MAIZE", "setting": "[3]; 31.3 g ai/ha", "result": 0},
      {"measurement": "phytotoxicity rating MAIZE", "setting": "[3]; 62.5 g ai/ha", "result": 0},
      {"measurement": "phytotoxicity rating MAIZE", "setting": "[3]; 125 g ai/ha", "result": 0},
      {"measurement": "phytotoxicity rating MAIZE", "setting": "[3]; 250 g ai/ha", "result": 0},
      {"measurement": "phytotoxicity rating DIGSA", "setting": "[4]; 3.9 g ai/ha", "result": 0},
      {"measurement": "phytotoxicity rating DIGSA", "setting": "[4]; 7.8 g ai/ha", "result": 0},
      {"measurement": "phytotoxicity rating DIGSA", "setting": "[4]; 15.6 g ai/ha", "result": 0},
      {"measurement": "phytotoxicity rating DIGSA", "setting": "[4]; 31.3 g ai/ha", "result": 0},
      {"measurement": "phytotoxicity rating DIGSA", "setting": "[4]; 62.5 g ai/ha", "result": 0},
      {"measurement": "phytotoxicity rating DIGSA", "setting": "[4]; 125 g ai/ha", "result": 0},
      {"measurement": "phytotoxicity rating DIGSA", "setting": "[4]; 250 g ai/ha", "result": 0},
      {"measurement": "phytotoxicity rating SORHA", "setting": "[5]; 3.9 g ai/ha", "result": 0},
      {"measurement": "phytotoxicity rating SORHA", "setting": "[5]; 7.8 g ai/ha", "result": 0},
      {"measurement": "phytotoxicity rating SORHA", "setting": "[5]; 15.6 g ai/ha", "result": 0},
      {"measurement": "phytotoxicity rating SORHA", "setting": "[5]; 31.3 g ai/ha", "result": 0},
      {"measurement": "phytotoxicity rating SORHA", "setting": "[5]; 62.5 g ai/ha", "result": 0},
      {"measurement": "phytotoxicity rating SORHA", "setting": "[5]; 125 g ai/ha", "result": 0},
      {"measurement": "phytotoxicity rating SORHA", "setting": "[5]; 250 g ai/ha", "result": 0},
      {"measurement": "phytotoxicity rating IPOHE", "setting": "[6]; 3.9 g ai/ha", "result": 0},
      {"measurement": "phytotoxicity rating IPOHE", "setting": "[6]; 7.8 g ai/ha", "result": 0},
      {"measurement": "phytotoxicity rating IPOHE", "setting": "[6]; 15.6 g ai/ha", "result": 0},
      {"measurement": "phytotoxicity rating IPOHE", "setting": "[6]; 31.3 g ai/ha", "result": 0},
      {"measurement": "phytotoxicity rating IPOHE", "setting": "[6]; 62.5 g ai/ha", "result": 0},
      {"measurement": "phytotoxicity rating IPOHE", "setting": "[6]; 125 g ai/ha", "result": 0},
      {"measurement": "phytotoxicity rating IPOHE", "setting": "[6]; 250 g ai/ha", "result": 0},
      {"measurement": "phytotoxicity rating SETVI", "setting": "[7]; 3.9 g ai/ha", "result": 0},
      {"measurement": "phytotoxicity rating SETVI", "setting": "[7]; 7.8 g ai/ha", "result": 0},
      {"measurement": "phytotoxicity rating SETVI", "setting": "[7]; 15.6 g ai/ha", "result": 0},
      {"measurement": "phytotoxicity rating SETVI", "setting": "[7]; 31.3 g ai/ha", "result": 0},
      {"measurement": "phytotoxicity rating SETVI", "setting": "[7]; 62.5 g ai/ha", "result": 0},
      {"measurement": "phytotoxicity rating SETVI", "setting": "[7]; 125 g ai/ha", "result": 0},
      {"measurement": "phytotoxicity rating SETVI", "setting": "[7]; 250 g ai/ha", "result": 0},
      {"measurement": "phytotoxicity rating XANST", "setting": "[8]; 3.9 g ai/ha", "result": 0},
      {"measurement": "phytotoxicity rating XANST", "setting": "[8]; 7.8 g ai/ha", "result": 0},
      {"measurement": "phytotoxicity rating XANST", "setting": "[8]; 15.6 g ai/ha", "result": 0},
      {"measurement": "phytotoxicity rating XANST", "setting": "[8]; 31.3 g ai/ha", "result": 0},
      {"measurement": "phytotoxicity rating XANST", "setting": "[8]; 62.5 g ai/ha", "result": 0},
      {"measurement": "phytotoxicity rating XANST", "setting": "[8]; 125 g ai/ha", "result": 0},
      {"measurement": "phytotoxicity rating XANST", "setting": "[8]; 250 g ai/ha", "result": 60},
      {"measurement": "phytotoxicity rating CASOB", "setting": "[9]; 3.9 g ai/ha", "result": 0},
      {"measurement": "phytotoxicity rating CASOB", "setting": "[9]; 7.8 g ai/ha", "result": 0},
      {"measurement": "phytotoxicity rating CASOB", "setting": "[9]; 15.6 g ai/ha", "result": 0},
      {"measurement": "phytotoxicity rating CASOB", "setting": "[9]; 31.3 g ai/ha", "result": 0},
      {"measurement": "phytotoxicity rating CASOB", "setting": "[9]; 62.5 g ai/ha", "result": 0},
      {"measurement": "phytotoxicity rating CASOB", "setting": "[9]; 125 g ai/ha", "result": 30},
      {"measurement": "phytotoxicity rating CASOB", "setting": "[9]; 250 g ai/ha", "result": 50},
      {"measurement": "phytotoxicity rating ABUTH", "setting": "[10]; 3.9 g ai/ha", "result": 0},
      {"measurement": "phytotoxicity rating ABUTH", "setting": "[10]; 7.8 g ai/ha", "result": 0},
      {"measurement": "phytotoxicity rating ABUTH", "setting": "[10]; 15.6 g ai/ha", "result": 0},
      {"measurement": "phytotoxicity rating ABUTH", "setting": "[10]; 31.3 g ai/ha", "result": 0},
      {"measurement": "phytotoxicity rating ABUTH", "setting": "[10]; 62.5 g ai/ha", "result": 0},
      {"measurement": "phytotoxicity rating ABUTH", "setting": "[10]; 125 g ai/ha", "result": 0},
      {"measurement": "phytotoxicity rating ABUTH", "setting": "[10]; 250 g ai/ha", "result": 50},
      {"measurement": "phytotoxicity rating CHEAL", "setting": "[11]; 3.9 g ai/ha", "result": 0},
      {"measurement": "phytotoxicity rating CHEAL", "setting": "[11]; 7.8 g ai/ha", "result": 0},
      {"measurement": "phytotoxicity rating CHEAL", "setting": "[11]; 15.6 g ai/ha", "result": 0},
      {"measurement": "phytotoxicity rating CHEAL", "setting": "[11]; 31.3 g ai/ha", "result": 0},
      {"measurement": "phytotoxicity rating CHEAL", "setting": "[11]; 62.5 g ai/ha", "result": 0},
      {"measurement": "phytotoxicity rating CHEAL", "setting": "[11]; 125 g ai/ha", "result": 30},
      {"measurement": "phytotoxicity rating CHEAL", "setting": "[11]; 250 g ai/ha", "result": 50},
      {"measurement": "phytotoxicity rating ECHCG", "setting": "[12]; 3.9 g ai/ha", "result": 0},
      {"measurement": "phytotoxicity rating ECHCG", "setting": "[12]; 7.8 g ai/ha", "result": 0},
      {"measurement": "phytotoxicity rating ECHCG", "setting": "[12]; 15.6 g ai/ha", "result": 0},
      {"measurement": "phytotoxicity rating ECHCG", "setting": "[12]; 31.3 g ai/ha", "result": 0},
      {"measurement": "phytotoxicity rating ECHCG", "setting": "[12]; 62.5 g ai/ha", "result": 0},
      {"measurement": "phytotoxicity rating ECHCG", "setting": "[12]; 125 g ai/ha", "result": 0},
      {"measurement": "phytotoxicity rating ECHCG", "setting": "[12]; 250 g ai/ha", "result": 0}
    ]}
  ]
}
